Laboratory results: PMC9981719, “A novel designed membrane-active peptide for the control of foodborne Salmonella enterica serovar Typhimurium” (Scientific Reports, 2023)
Where no end group is shown, it is not given here.

How the values were obtained:
4,5,12:i:- H2-039 [1] = settings: checkerboard
Protocol: (§1) Effects of the combination of A11 with nisin against S. Typhimurium ATCC 13311 and 10 drug-resistant S. Typhimurium and S. enterica isolates were determined by the checkerboard titration method. Briefly, 10 drug-resistant S. Typhimurium were grown to a concentration of 1 × 10^7 CFU/ml in fresh TSB. Aliquots (25 µl) of nisin (final concentrations of 0.5–16 mg/ml) and A11 (final concentrations of 0.98–250 µg/ml) were added into 96-well plates containing 50 µl of bacterial suspension and cultured at 37 °C. […] ICA is the concentration required to produce the same effect as compound A when used alone, ICB is the concentration required to produce the same effect as compound B when used alone. The CI results were interpreted as follows: a CI of less than 1 indicates synergistic effect, a CI equal to 1 indicates additive effect, and a CI of more than 1 indicates antagonistic effect.

S. Typhimurium H1-006 [2] = settings: checkerboard
Protocol: as §1

S. Typhimurium H1-041 [3] = settings: checkerboard
Protocol: as §1

S. Typhimurium H1-001 [4] = settings: checkerboard
Protocol: as §1

S. Typhimurium H1-062 [5] = settings: checkerboard
Protocol: as §1

S. Typhimurium H1-015 [6] = settings: checkerboard
Protocol: as §1

4,5,12:i:- H2-042 [7] = settings: checkerboard
Protocol: as §1

S. Typhimurium ATCC13311 = settings: checkerboard, TSB, 37 °C, 24 h
Protocol: as §1

S. Typhimurium H1-011 [8] = settings: checkerboard
Protocol: as §1

4,5,12:i:- H2-089 [9] = settings: checkerboard
Protocol: as §1

4,5,12:i:- H1-100 [10] = settings: checkerboard
Protocol: as §1

4,5,12:i:- H2-049 = format: cell-based, Salmonella enterica 4,5,12:i:-; settings: strain H2-049
Description: (§2) All tests were done in triplicate.

4,5,12:i:- H2-039 [11] = format: cell-based, Salmonella enterica 4,5,12:i:-; settings: strain H2-039
Description: as §2

4,5,12:i:- H2-071 = format: cell-based, Salmonella enterica 4,5,12:i:-; settings: strain H2-071
Description: as §2

4,5,12:i:- H2-067 = format: cell-based, Salmonella enterica 4,5,12:i:-; settings: strain H2-067
Description: as §2

4,5,12:i:- H2-042 [12] = format: cell-based, Salmonella enterica 4,5,12:i:-; settings: strain H2-042
Description: as §2

4,5,12:i:- H1-024 = format: cell-based, Salmonella enterica 4,5,12:i:-; settings: strain H1-024
Description: as §2

4,5,12:i:- H2-010 = format: cell-based, Salmonella enterica 4,5,12:i:-; settings: strain H2-010
Description: as §2

4,5,12:i:- H2-047 = format: cell-based, Salmonella enterica 4,5,12:i:-; settings: strain H2-047
Description: as §2

4,5,12:i:- H2-089 [13] = format: cell-based, Salmonella enterica 4,5,12:i:-; settings: strain H2-089
Description: as §2

4,5,12:i:- H1-100 [14] = format: cell-based, Salmonella enterica 4,5,12:i:-; settings: strain H1-100
Description: as §2

[15] = test system: 16 drug-resistant S. Typhimurium and 4,5,12:i:- isolates from Thailand; format: cell-based, Salmonella enterica; settings: summary over 16 isolates; nisin up to maximum concentration of 16,000 µg/ml
Description: as §2

[16] = test system: S. Typhimurium ATCC 13311 and 10 drug-resistant S. Typhimurium and S. enterica isolates; test: Checkerboard titration, A11 with nisin, summary over strains; format: cell-based, Salmonella enterica; settings: summary over tested strains
Protocol: as §1

S. Typhimurium H1-006 [17] = test: MIC/MBC against drug-resistant isolate; format: cell-based, Salmonella enterica serovar Typhimurium; settings: strain H1-006
Description: as §2

S. Typhimurium H1-041 [18] = test: MIC/MBC against drug-resistant isolate; format: cell-based, Salmonella enterica serovar Typhimurium; settings: strain H1-041
Description: as §2

S. Typhimurium H1-062 [19] = test: MIC/MBC against drug-resistant isolate; format: cell-based, Salmonella enterica serovar Typhimurium; settings: strain H1-062
Description: as §2

[20] = test system: Salmonella Typhimurium ATCC 13311; format: cell-based, Salmonella enterica serovar Typhimurium; settings: broth microdilution in MHB, 37 °C, 24 h, visible inspection, triplicate
Description: as §2

S. Typhimurium H1-001 [21] = format: cell-based, Salmonella enterica serovar Typhimurium; settings: strain H1-001
Description: as §2

S. Typhimurium H1-015 [22] = format: cell-based, Salmonella enterica serovar Typhimurium; settings: strain H1-015
Description: as §2

S. Typhimurium H1-011 [23] = format: cell-based, Salmonella enterica serovar Typhimurium; settings: strain H1-011
Description: as §2

Nisin (ITSISLCTPGCKTGALMGCNMKTATCHCSIHVSK; not fully specified (some residues, bridges); also: lantibiotic nisin-A: thioether (lanthionine) rings and dehydrated residues, places not given here; UniProt P13068 24-57, looked up) [bacteriocin, lantibiotic produced by Lactococcus lactis subsp. lactis, approved food preservative]
500 µg/mL: MIC (combination) (4,5,12:i:- H2-039 [1]; A11 combined with nisin) | MIC (combination) (S. Typhimurium H1-006 [2]; A11 combined with nisin) | MIC (combination) (S. Typhimurium H1-041 [3]; A11 combined with nisin) | MIC (combination) (S. Typhimurium H1-001 [4]; A11 combined with nisin) | MIC (combination) (S. Typhimurium H1-062 [5]; A11 combined with nisin) | MIC (combination) (S. Typhimurium H1-015 [6]; A11 combined with nisin) | MIC (combination) (4,5,12:i:- H2-042 [7]; A11 combined with nisin) | MIC (combination) (S. Typhimurium H1-011 [8]; A11 combined with nisin) | MIC (combination) (4,5,12:i:- H2-089 [9]; A11 combined with nisin) | MIC (combination) (4,5,12:i:- H1-100 [10]; A11 combined with nisin) | MIC of nisin in combination with A11 [16]
4000 µg/mL: MIC (combination) (S. Typhimurium ATCC13311; A11 combined with nisin)
> 16,000 µg/ml: MIC (alone) (4,5,12:i:- H2-039 [1]; TSB, 37 °C, 24 h) | MIC (alone) (S. Typhimurium H1-006 [2]; TSB, 37 °C, 24 h) | MIC (alone) (S. Typhimurium H1-041 [3]; TSB, 37 °C, 24 h) | MIC (alone) (S. Typhimurium H1-001 [4]; TSB, 37 °C, 24 h) | MIC (alone) (S. Typhimurium H1-062 [5]; TSB, 37 °C, 24 h) | MIC (alone) (S. Typhimurium H1-015 [6]; TSB, 37 °C, 24 h) | MIC (alone) (4,5,12:i:- H2-042 [7]; TSB, 37 °C, 24 h) | MIC (alone) (S. Typhimurium H1-011 [8]; TSB, 37 °C, 24 h) | MIC (alone) (4,5,12:i:- H2-089 [9]; TSB, 37 °C, 24 h) | MIC (alone) (4,5,12:i:- H1-100 [10]; TSB, 37 °C, 24 h) | MIC (4,5,12:i:- H2-049) | MIC (4,5,12:i:- H2-039 [11]) | MIC (4,5,12:i:- H2-071) | MIC (4,5,12:i:- H2-067) | MIC (4,5,12:i:- H2-042 [12]) | MIC (4,5,12:i:- H1-024) | MIC (4,5,12:i:- H2-010) | MIC (4,5,12:i:- H2-047) | MIC (4,5,12:i:- H2-089 [13]) | MIC (4,5,12:i:- H1-100 [14]) | MICs against the 16 drug-resistant S. enterica isolates [15] | MIC (S. Typhimurium H1-006 [17]) | MIC (S. Typhimurium H1-041 [18]) | MIC (S. Typhimurium H1-062 [19]) | MIC (S. Typhimurium H1-001 [21]) | MIC (S. Typhimurium H1-015 [22]) | MIC (S. Typhimurium H1-011 [23])
16,000 µg/ml: MIC (alone) (S. Typhimurium ATCC13311) | MIC [20]
